The target of one assay is Protein Wnt-3a (Mus musculus, UniProt P27467). As to the kind of experiment: antagonism of Wnt3a pathway luciferase reporter – Wnt-LIGHT cells, luminescence, selectivity assay for Gli-SUFU antagonist project, dose response (AID 651570).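 Further: Wnt-LIGHT reporter cells stimulated with conditioned medium from Wnt3a-producing cells.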 Type of assay: functional. To be noted: read-out: IC50_Mean. For orientation: Reporter assays use an easily measured gene product as a stand-in for the process of interest.
Sequence of Protein Wnt-3a (P27467 whole entry): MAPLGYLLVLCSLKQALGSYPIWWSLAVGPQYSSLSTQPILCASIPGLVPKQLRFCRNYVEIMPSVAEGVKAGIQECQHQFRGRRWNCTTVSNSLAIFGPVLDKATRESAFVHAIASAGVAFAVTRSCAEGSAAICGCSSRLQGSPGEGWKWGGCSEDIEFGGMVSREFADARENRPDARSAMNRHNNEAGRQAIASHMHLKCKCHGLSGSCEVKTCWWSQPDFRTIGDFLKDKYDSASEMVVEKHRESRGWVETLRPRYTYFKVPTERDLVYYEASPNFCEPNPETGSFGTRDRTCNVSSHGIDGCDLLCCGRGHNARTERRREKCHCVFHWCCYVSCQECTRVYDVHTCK

Assay [1] has as its target Arf-GAP with SH3 domain, ANK repeat and PH domain-containing protein 1 (Homo sapiens, UniProt Q9ULH1). The class given is functional.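 Further: biochemical fluorescence polarization dose–response screen measuring inhibition of ASAP1; ASAP1 GAP domain stimulating GTP hydrolysis by truncated human ARF1.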
The nature of a further assay: cells. Type of assay: functional, cell-based.
Assay [2] concerns the target T1, Nuclear receptor subfamily 0 group B member 1 (Homo sapiens, UniProt P51843).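 Further: HEK293T cells transfected with SF-1 and DAX-1 plus StAR promoter luciferase reporter.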
T1 sequence (P51843 whole entry): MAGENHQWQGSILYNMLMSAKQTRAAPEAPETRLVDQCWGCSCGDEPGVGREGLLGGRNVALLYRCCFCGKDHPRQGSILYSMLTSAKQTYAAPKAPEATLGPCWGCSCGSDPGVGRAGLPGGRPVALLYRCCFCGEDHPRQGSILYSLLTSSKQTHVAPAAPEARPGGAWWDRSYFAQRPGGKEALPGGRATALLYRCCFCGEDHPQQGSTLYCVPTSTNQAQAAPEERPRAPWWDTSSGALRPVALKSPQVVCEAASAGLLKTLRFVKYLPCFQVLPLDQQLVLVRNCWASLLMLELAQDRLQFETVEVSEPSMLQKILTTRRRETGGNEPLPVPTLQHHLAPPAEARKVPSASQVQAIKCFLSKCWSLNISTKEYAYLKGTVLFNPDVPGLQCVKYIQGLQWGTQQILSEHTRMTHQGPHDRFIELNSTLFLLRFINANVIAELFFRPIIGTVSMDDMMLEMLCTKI
Type of assay: functional, cell-based.

In the next assay the target is T2, Aminopeptidase N (Plasmodium falciparum FcB1/Columbia, UniProt O96935).
T2 sequence (O96935 whole entry): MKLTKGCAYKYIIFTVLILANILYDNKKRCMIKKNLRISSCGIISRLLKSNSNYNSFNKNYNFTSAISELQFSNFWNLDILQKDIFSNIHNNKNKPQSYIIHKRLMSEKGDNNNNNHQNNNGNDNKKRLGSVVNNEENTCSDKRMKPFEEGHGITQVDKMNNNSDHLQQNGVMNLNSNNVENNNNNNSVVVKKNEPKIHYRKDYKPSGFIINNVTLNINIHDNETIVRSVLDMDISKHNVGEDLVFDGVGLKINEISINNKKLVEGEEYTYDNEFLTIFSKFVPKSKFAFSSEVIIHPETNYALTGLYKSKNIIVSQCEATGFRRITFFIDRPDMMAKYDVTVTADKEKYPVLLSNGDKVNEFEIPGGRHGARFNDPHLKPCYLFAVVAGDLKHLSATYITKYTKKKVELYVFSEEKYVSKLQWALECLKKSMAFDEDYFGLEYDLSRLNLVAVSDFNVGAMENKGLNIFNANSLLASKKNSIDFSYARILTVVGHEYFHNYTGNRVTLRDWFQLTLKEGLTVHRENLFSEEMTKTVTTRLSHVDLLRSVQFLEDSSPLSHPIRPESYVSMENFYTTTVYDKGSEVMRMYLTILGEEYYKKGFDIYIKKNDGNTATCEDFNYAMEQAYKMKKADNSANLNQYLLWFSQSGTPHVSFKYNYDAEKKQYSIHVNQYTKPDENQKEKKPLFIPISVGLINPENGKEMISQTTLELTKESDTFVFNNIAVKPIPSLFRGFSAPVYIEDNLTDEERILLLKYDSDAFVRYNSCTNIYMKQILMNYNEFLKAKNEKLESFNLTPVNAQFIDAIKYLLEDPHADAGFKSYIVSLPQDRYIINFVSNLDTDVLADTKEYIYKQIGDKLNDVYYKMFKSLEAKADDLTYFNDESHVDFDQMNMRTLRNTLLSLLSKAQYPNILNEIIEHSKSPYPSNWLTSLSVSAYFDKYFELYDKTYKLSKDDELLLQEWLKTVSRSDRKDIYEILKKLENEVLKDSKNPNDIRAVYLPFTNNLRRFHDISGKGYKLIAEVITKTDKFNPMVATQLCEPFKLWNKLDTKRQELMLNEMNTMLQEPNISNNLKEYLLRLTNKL
As to the kind of experiment: malaria alanyl aminopeptidase activity blockers – biochemical, fluorogenic H-Leu-NHMec substrate, 1536-well (AID 1445). Details: species or system Plasmodium falciparum 3D7, 3D7.

The next assay addresses Genome polyprotein (dengue virus type 2, UniProt P29990). The assay is described as follows: flavivirus cap methylation enzyme inhibition – biochemical, confirmation dose response, primary screen (AID 588689). Type of assay: functional.
The target in assay [3] is T3, Small ubiquitin-related modifier 1 (Homo sapiens, UniProt P63165). The assay is described as follows: SUMO1 protein interaction blockers, potency – biochemical, fluorescence polarization, uHTS hits, dose response (AID 624382). Type of assay: functional. To be noted: read-out: IC50_Mean. (In general: Fluorescence polarisation rises when a labelled molecule tumbles more slowly, as on binding a larger partner.)
T3 sequence (P63165 whole entry): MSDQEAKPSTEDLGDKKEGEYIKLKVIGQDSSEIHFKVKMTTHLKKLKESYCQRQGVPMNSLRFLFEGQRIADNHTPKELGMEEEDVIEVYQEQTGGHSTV

In assay [4] the target is T3, Small ubiquitin-related modifier 1. As to the kind of experiment: SUMO1 protein-protein binding blockers, potency – biochemical, FRET, dose response (AID 624383). The class given is functional. The conditions noted are these: read-out: IC50_Mean.
For a further assay, the target named is T4, Caspase-6 (Homo sapiens, UniProt P55212).
T4 sequence (P55212 whole entry): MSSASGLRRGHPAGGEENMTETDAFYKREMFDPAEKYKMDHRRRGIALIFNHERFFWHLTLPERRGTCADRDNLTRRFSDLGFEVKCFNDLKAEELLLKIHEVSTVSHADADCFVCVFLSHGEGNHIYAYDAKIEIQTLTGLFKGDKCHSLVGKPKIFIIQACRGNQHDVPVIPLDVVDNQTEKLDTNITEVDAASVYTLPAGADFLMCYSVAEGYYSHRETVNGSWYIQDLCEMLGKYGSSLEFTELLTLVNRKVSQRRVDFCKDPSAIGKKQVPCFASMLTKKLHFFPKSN
The assay is described as follows: inhibition of CASP6 peptide cleavage – biochemical, VEID-R110 fluorescence, cherry-pick, dose response (AID 720632).

For the next assay, the target named is Caspase-7 (Homo sapiens, UniProt P55210). The assay is described as follows: caspase-7 enzyme inhibition, selectivity check – biochemical, DEVD-R110 fluorescence, cherry-pick, selectivity assay for caspase-6 inhibitor project, dose response (AID 743295). The class given is functional.
Sequence of Caspase-7 (P55210 24-198 limits assumed): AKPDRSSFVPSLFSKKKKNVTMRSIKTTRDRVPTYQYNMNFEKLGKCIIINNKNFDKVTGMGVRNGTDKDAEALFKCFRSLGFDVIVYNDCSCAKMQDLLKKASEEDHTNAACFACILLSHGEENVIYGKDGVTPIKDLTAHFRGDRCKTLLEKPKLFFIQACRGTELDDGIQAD
Sequence of Caspase-7 (P55210 207-303 limits assumed): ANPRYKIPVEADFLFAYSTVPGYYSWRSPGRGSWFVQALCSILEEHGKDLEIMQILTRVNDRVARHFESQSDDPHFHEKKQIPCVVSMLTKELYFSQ
The target in the next assay is Caspase-8 (Homo sapiens, UniProt Q14790). The assay is described as follows: inhibitors of purified CASP8 protease – biochemical, Z-IETD-R110 fluorescence, cherry-picked samples, selectivity assay for caspase-6 inhibitor project, dose response (AID 743294).
Sequence of Caspase-8 (Q14790 217-374 limits assumed): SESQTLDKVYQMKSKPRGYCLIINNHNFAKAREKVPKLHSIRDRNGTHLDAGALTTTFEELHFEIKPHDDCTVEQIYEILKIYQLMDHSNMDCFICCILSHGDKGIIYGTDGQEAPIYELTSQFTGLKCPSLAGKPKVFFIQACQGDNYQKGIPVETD
Sequence of Caspase-8 (Q14790 385-479 limits assumed): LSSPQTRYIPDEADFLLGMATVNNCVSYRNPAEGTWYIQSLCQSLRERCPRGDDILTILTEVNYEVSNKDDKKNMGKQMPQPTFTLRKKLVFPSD

Active and inactive are the calls of the source.

Sequence of Arf-GAP with SH3 domain, ANK repeat and PH domain-containing protein 1 (Q9ULH1 whole entry, the tested form may be a part): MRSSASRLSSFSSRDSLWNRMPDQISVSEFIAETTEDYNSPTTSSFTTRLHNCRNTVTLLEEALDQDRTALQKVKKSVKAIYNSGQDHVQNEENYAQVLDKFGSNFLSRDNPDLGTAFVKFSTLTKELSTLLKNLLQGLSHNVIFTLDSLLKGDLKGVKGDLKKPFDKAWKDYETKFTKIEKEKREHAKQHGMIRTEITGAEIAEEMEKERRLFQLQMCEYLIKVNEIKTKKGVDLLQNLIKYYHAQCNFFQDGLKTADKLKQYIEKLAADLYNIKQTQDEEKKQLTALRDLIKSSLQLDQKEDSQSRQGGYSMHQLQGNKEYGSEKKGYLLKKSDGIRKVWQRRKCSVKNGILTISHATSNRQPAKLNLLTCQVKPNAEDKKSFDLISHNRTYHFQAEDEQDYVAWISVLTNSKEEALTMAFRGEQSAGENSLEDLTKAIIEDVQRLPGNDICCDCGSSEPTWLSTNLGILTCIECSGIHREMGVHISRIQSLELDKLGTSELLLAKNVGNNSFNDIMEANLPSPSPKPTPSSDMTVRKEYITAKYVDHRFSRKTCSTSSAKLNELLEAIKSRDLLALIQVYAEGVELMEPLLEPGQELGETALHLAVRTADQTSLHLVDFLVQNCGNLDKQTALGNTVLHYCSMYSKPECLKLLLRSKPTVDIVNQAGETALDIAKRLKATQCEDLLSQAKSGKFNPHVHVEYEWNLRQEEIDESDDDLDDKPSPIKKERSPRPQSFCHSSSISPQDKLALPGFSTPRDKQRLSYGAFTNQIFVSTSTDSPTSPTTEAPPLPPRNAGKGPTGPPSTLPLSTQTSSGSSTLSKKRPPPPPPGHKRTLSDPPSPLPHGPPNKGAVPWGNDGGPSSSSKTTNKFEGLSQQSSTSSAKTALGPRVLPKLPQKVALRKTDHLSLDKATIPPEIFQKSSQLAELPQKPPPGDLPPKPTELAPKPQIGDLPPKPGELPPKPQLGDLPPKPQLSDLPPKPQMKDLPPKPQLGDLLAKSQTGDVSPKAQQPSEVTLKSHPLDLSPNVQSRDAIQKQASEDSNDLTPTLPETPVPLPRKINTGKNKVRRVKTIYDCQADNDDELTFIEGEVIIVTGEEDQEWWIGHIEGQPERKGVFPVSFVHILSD
Sequence of Genome polyprotein (P29990 2492-3391 limits assumed): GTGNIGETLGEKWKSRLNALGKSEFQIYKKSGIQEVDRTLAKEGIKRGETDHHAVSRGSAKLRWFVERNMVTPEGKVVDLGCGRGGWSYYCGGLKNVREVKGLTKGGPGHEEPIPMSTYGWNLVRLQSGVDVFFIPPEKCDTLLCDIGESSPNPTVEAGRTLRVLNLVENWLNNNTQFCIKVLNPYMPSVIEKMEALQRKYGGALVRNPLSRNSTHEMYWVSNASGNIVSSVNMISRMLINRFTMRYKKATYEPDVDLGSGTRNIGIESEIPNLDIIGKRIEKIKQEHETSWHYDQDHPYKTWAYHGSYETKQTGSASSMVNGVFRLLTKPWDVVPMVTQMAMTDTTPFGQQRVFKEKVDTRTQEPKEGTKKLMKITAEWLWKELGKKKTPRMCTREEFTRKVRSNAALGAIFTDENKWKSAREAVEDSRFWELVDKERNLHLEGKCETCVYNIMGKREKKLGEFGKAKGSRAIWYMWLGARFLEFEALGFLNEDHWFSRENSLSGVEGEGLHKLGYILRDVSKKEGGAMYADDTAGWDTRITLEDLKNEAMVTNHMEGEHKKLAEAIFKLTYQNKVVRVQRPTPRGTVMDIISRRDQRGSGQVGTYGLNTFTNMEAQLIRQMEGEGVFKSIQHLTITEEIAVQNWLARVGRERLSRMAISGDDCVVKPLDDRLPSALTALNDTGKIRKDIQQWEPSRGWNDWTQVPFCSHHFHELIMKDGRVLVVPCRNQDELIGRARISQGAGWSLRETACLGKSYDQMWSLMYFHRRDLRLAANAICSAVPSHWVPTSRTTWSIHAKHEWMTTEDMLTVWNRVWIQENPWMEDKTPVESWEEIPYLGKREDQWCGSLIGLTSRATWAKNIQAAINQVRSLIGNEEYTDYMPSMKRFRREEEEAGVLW

For `O=C(/C=C/c1ccco1)Nc1ccc(-c2nc3ccccc3[nH]2)cc1`, the IC50 was 14.6 µM (active) on Protein Wnt-3a and 14 µM (inactive) in assay [1].

Consider `COc1cc(OC)c2c(=O)cc(-c3ccccc3)oc2c1` [CHRYSIN DIMETHYL ETHER], for which the IC50 (in “cells”; in assay [2]) was > 67.6 µM (inactive) each time.

On to `COc1cc(C)c2c(c1C=O)Oc1c(c(C)c(O)c3c1C(O)OC3=O)OC2=O` (stereo unspecified) [STICTIC ACID], for which the IC50 is 27.3 µM (active) at Aminopeptidase N, 71.2 µM (active) on Genome polyprotein, > 66.6 µM (inactive) in assay [3] and 7.69 µM (active) in [4]. Besides, the AC50 at Caspase-6 was 0.817 µM (active); on Caspase-7, 44.3 µM (active); at Caspase-8, > 70 µM (inactive).

One may read the AC50 as the concentration giving half of the maximal activity seen.

These data come from ChEMBL document CHEMBL1201862, “PubChem BioAssay data set” (2004).
